According to PubChem BioAssay AID1259407 (Chemical Carcinogenesis Research Information System (CCRIS), 2018):
Calls of active or inactive are those of the source. How the calls were made is not given here.

Test system: CCRIS mutagenicity, Ames/micronucleus/aberration tests
Test: CCRIS mutagenicity studies
[1] = Test System: AMES SALMONELLA TYPHIMURIUM, Strain/Indicator: TA98, Metabolic Activation: NONE, Method: PREINCUBATION
[2] = Test System: AMES SALMONELLA TYPHIMURIUM, Strain/Indicator: TA100, Metabolic Activation: NONE, Method: PREINCUBATION
[3] = Test System: AMES SALMONELLA TYPHIMURIUM, Strain/Indicator: TA1535, Metabolic Activation: NONE, Method: PREINCUBATION
[4] = Test System: AMES SALMONELLA TYPHIMURIUM, Strain/Indicator: TA1537, Metabolic Activation: NONE, Method: PREINCUBATION

Q: `OCC(O)CI` (stereo not drawn) was tested. Which mutagenic call (Test System: AMES SALMONELLA TYPHIMURIUM, Strain/Indicator: TA98, Metabolic Activation: HAMSTER, LIVER, S-9, AROCLOR 1254 (30%), Method: PREINCUBATION) did it give?
A: Its mutagenic call is “inactive; negative”.

Q: And the mutagenic call [1]?
A: The mutagenic call was “inactive; negative”.

Q: What about the mutagenic call (Test System: AMES SALMONELLA TYPHIMURIUM, Strain/Indicator: TA98, Metabolic Activation: RAT, LIVER, S-9, AROCLOR 1254 (30%), Method: PREINCUBATION) of the same molecule?
A: Its mutagenic call is “inactive; negative”.

Q: And the mutagenic call (Test System: AMES SALMONELLA TYPHIMURIUM, Strain/Indicator: TA100, Metabolic Activation: HAMSTER, LIVER, S-9, AROCLOR 1254 (30%), Method: PREINCUBATION)?
A: The mutagenic call was “active; positive”.

Q: And the mutagenic call [2]?
A: Its mutagenic call is “active; positive”.

Q: And the mutagenic call (Test System: AMES SALMONELLA TYPHIMURIUM, Strain/Indicator: TA100, Metabolic Activation: RAT, LIVER, S-9, AROCLOR 1254 (30%), Method: PREINCUBATION)?
A: The mutagenic call was “active; positive”.

Q: Which results are given for `COc1cc(-c2ccc(N/N=C3\C=Cc4c(S(=O)(=O)O)cc(S(=O)(=O)O)c(N)c4C3=O)c(OC)c2)ccc1N/N=C1/C=Cc2c(S(=O)(=O)O)cc(S(=O)(=O)O)c(N)c2C1=O`?
A: mutagenic call (Test System: AMES SALMONELLA TYPHIMURIUM, Strain/Indicator: TA98, Metabolic Activation: HAMSTER, LIVER, S-9, Method: PREINCUBATION (PRIVAL METHOD)): active; positive; mutagenic call (Test System: Ames Salmonella typhimurium, Strain/Indicator: TA98, Metabolic Activation: Rat, Liver, S-9, Sodium phenobarbitone, Method: Preincubation): inactive; negative, test conducted under both aerobic and anaerobic conditions.; mutagenic call (Test System: Ames Salmonella typhimurium, Strain/Indicator: TA1538, Metabolic Activation: Rat, Liver, S-9, Sodium phenobarbitone, Method: Preincubation): inactive; negative, test conducted under both aerobic and anaerobic conditions.

Q: Which mutagenic call [3] does the source give for `Nc1cccc2nc3ccccc3c(N)c12` here?
A: Its mutagenic call is “inactive; negative”.

Q: What about the mutagenic call (Test System: AMES SALMONELLA TYPHIMURIUM, Strain/Indicator: TA1535, Metabolic Activation: RAT, LIVER, S-9, TETRACHLOROBIPHENYL, Method: PREINCUBATION) of the same molecule?
A: The mutagenic call was “active; positive”.

Q: What about the mutagenic call [4] of the same molecule?
A: The mutagenic call was “active; positive”.

Q: And the mutagenic call (Test System: AMES SALMONELLA TYPHIMURIUM, Strain/Indicator: TA1537, Metabolic Activation: RAT, LIVER, S-9, TETRACHLOROBIPHENYL, Method: PREINCUBATION)?
A: Its mutagenic call is “active; positive”.

Q: And the mutagenic call (Test System: AMES SALMONELLA TYPHIMURIUM, Strain/Indicator: TA1538, Metabolic Activation: NONE, Method: PREINCUBATION)?
A: The mutagenic call was “inactive; negative”.

Q: And the mutagenic call (Test System: AMES SALMONELLA TYPHIMURIUM, Strain/Indicator: TA1538, Metabolic Activation: RAT, LIVER, S-9, TETRACHLOROBIPHENYL, Method: PREINCUBATION)?
A: The mutagenic call was “active; positive”.

Q: And the mutagenic call (Test System: AMES SALMONELLA TYPHIMURIUM, Strain/Indicator: TA1975, Metabolic Activation: RAT, LIVER, S-9, TETRACHLOROBIPHENYL, Method: PREINCUBATION)?
A: Its mutagenic call is “active; positive”.

Q: What about the mutagenic call (Test System: AMES SALMONELLA TYPHIMURIUM, Strain/Indicator: TA1977, Metabolic Activation: NONE, Method: PREINCUBATION) of the same molecule?
A: The mutagenic call was “active; positive”.

Q: And the mutagenic call (Test System: AMES SALMONELLA TYPHIMURIUM, Strain/Indicator: TA1977, Metabolic Activation: RAT, LIVER, S-9, TETRACHLOROBIPHENYL, Method: PREINCUBATION)?
A: The mutagenic call was “active; positive”.

Q: What about the mutagenic call (Test System: AMES SALMONELLA TYPHIMURIUM, Strain/Indicator: TA1978, Metabolic Activation: RAT, LIVER, S-9, TETRACHLOROBIPHENYL, Method: PREINCUBATION) of the same molecule?
A: The mutagenic call was “active; positive”.

Q: `Cc1c(O)cc([N+](=O)[O-])cc1[N+](=O)[O-]` was tested. Which mutagenic call (Test System: AMES SALMONELLA TYPHIMURIUM, Strain/Indicator: TA98, Metabolic Activation: RAT, LIVER, S-9, KANECHLOR 500, Method: PREINCUBATION) did it give?
A: The mutagenic call was “inactive; negative”.

Q: And the mutagenic call [2]?
A: Its mutagenic call is “inactive; negative”.

Q: What about the mutagenic call (Test System: AMES SALMONELLA TYPHIMURIUM, Strain/Indicator: TA100, Metabolic Activation: RAT, LIVER, S-9, KANECHLOR 500, Method: PREINCUBATION) of the same molecule?
A: The mutagenic call was “inactive; negative”.

Q: Which mutagenic call (End Point: IN VIVO MICRONUCLEUS, Test System: BONE MARROW, Species: MOUSE, Strain/Sex: WILD TYPE/MALE, Route: INTRAPERITONEAL) does the source give for `N.NC1CCCC1.O=C([O-])CC(O)C(=O)[O-].[Pt+2]` (stereo not drawn) here?
A: The mutagenic call was “active; positive”.

Q: What does the source list for `COc1cc(C=O)ccc1O`?
A: mutagenic call (Test System: AMES SALMONELLA TYPHIMURIUM, Strain/Indicator: TA98, Metabolic Activation: NONE, Method: STANDARD PLATE): inactive; negative; mutagenic call (Test System: AMES SALMONELLA TYPHIMURIUM, Strain/Indicator: TA98, Metabolic Activation: RAT, LIVER, S-9, AROCLOR 1254, Method: STANDARD PLATE): inactive; negative; mutagenic call (Test System: AMES SALMONELLA TYPHIMURIUM, Strain/Indicator: TA100, Metabolic Activation: NONE, Method: STANDARD PLATE): inactive; negative; mutagenic call (Test System: AMES SALMONELLA TYPHIMURIUM, Strain/Indicator: TA100, Metabolic Activation: RAT, LIVER, S-9, AROCLOR 1254, Method: STANDARD PLATE): inactive; negative; mutagenic call (Test System: AMES SALMONELLA TYPHIMURIUM, Strain/Indicator: TA1535, Metabolic Activation: RAT, LIVER, S-9, AROCLOR 1254, Method: STANDARD PLATE): inactive; negative; mutagenic call (Test System: E. COLI, Strain/Indicator: CM561 LEXA, Metabolic Activation: NONE, Method: STANDARD PLATE): inactive; negative; mutagenic call (Test System: E. COLI, Strain/Indicator: CM611 UVRA/LEXA, Metabolic Activation: NONE, Method: STANDARD PLATE): inactive; negative; mutagenic call (Test System: E. COLI, Strain/Indicator: WP2 UVRA, Metabolic Activation: NONE, Method: STANDARD PLATE): inactive; negative

Q: For `O[C@@H]1[C@@H]2O[C@@H]2c2cc3c(ccc4ccccc43)cc2[C@H]1O`, which mutagenic call (Test System: CHINESE HAMSTER V-79, Strain/Indicator: V-79/8-AZAGUANINE, Metabolic Activation: NONE, Method: STANDARD PLATE) is on record?
A: The mutagenic call was “active; positive”.

Q: Which results are given for `C[C@H](CCC(=O)O)[C@H]1CC[C@H]2[C@@H]3CC[C@@H]4C[C@@H](O)CC[C@]4(C)[C@H]3C[C@H](O)[C@]12C`?
A: mutagenic call (Test System: AMES SALMONELLA TYPHIMURIUM, Strain/Indicator: TA98, Metabolic Activation: NONE, Method: FLUCTUATION TEST): inactive; negative; mutagenic call [1]: inactive; negative; mutagenic call (Test System: AMES SALMONELLA TYPHIMURIUM, Strain/Indicator: TA98, Metabolic Activation: RAT, LIVER, S-9, PCB, Method: PREINCUBATION): inactive; negative; mutagenic call (Test System: AMES SALMONELLA TYPHIMURIUM, Strain/Indicator: TA100, Metabolic Activation: NONE, Method: FLUCTUATION TEST): inactive; negative

Q: For `CCCCOC(=O)c1ccccc1C(=O)OC1CCCCC1`, which mutagenic call (Test System: AMES SALMONELLA TYPHIMURIUM, Strain/Indicator: TA98, Metabolic Activation: HAMSTER, LIVER, S-9, AROCLOR 1254 (10%), Method: PREINCUBATION) is on record?
A: The mutagenic call was “inactive; negative”.

Q: And the mutagenic call [1]?
A: The mutagenic call was “inactive; negative”.

Q: What about the mutagenic call (Test System: AMES SALMONELLA TYPHIMURIUM, Strain/Indicator: TA98, Metabolic Activation: RAT, LIVER, S-9, AROCLOR 1254 (10%), Method: PREINCUBATION) of the same molecule?
A: Its mutagenic call is “inactive; negative”.

Q: What about the mutagenic call (Test System: AMES SALMONELLA TYPHIMURIUM, Strain/Indicator: TA100, Metabolic Activation: HAMSTER, LIVER, S-9, AROCLOR 1254 (10%), Method: PREINCUBATION) of the same molecule?
A: The mutagenic call was “inactive; negative”.

Q: What about the mutagenic call [2] of the same molecule?
A: The mutagenic call was “inactive; negative”.

Q: And the mutagenic call (Test System: AMES SALMONELLA TYPHIMURIUM, Strain/Indicator: TA100, Metabolic Activation: RAT, LIVER, S-9, AROCLOR 1254 (10%), Method: PREINCUBATION)?
A: The mutagenic call was “inactive; negative”.

Q: And the mutagenic call (Test System: AMES SALMONELLA TYPHIMURIUM, Strain/Indicator: TA1535, Metabolic Activation: HAMSTER, LIVER, S-9, AROCLOR 1254 (10%), Method: PREINCUBATION)?
A: The mutagenic call was “inactive; negative”.

Q: And the mutagenic call [3]?
A: The mutagenic call was “inactive; negative”.

Q: And the mutagenic call (Test System: AMES SALMONELLA TYPHIMURIUM, Strain/Indicator: TA1535, Metabolic Activation: RAT, LIVER, S-9, AROCLOR 1254 (10%), Method: PREINCUBATION)?
A: Its mutagenic call is “inactive; negative”.

Q: And the mutagenic call (Test System: AMES SALMONELLA TYPHIMURIUM, Strain/Indicator: TA1537, Metabolic Activation: HAMSTER, LIVER, S-9, AROCLOR 1254 (10%), Method: PREINCUBATION)?
A: Its mutagenic call is “inactive; negative”.

Q: What about the mutagenic call [4] of the same molecule?
A: The mutagenic call was “inactive; negative”.

Q: And the mutagenic call (Test System: AMES SALMONELLA TYPHIMURIUM, Strain/Indicator: TA1537, Metabolic Activation: RAT, LIVER, S-9, AROCLOR 1254 (10%), Method: PREINCUBATION)?
A: The mutagenic call was “inactive; negative”.
